Source: patent US8658684B2, “Pharmaceutical composition and its use in the preparation of a medicament for the treatment of cerebrovascular diseases” (Jiangsu Simcere Pharmaceutical R & D Co., Ltd., priority 2008, dated 2014)

Legend:
[1] = test system: cerebral ischemia/reperfusion model rats; assay: Focal cerebral ischemia/reperfusion model, Edaravone versus combinations 2:1, 4:1, 9:1 (Example 18); assay type: in vivo, Wistar rats
Experimental: 1.1 Animals: Healthy male Wistar rats weighing 280-320 g.
1.2 Drugs and Reagents: Edaravone for injection (2 mg/mL) of Example 1, and Edaravone+natural borneol for injection of Examples 5, 7 and 11.
Experimental methods and evaluation methods are the same as Example 13.

[2] = test system: focal cerebral ischemia reperfusion model rats; assay: Focal cerebral ischemia reperfusion model in rats, intraperitoneal dosing (Example 16); assay type: in vivo, Wistar rats; conditions: for Cerebral infarction size (%): 2 h ischemia, 24 h reperfusion, i.p. twice (30 min before ischemia, 12 h after reperfusion), combination 0.5+0.25 mg/kg, control 35.7 ± 7.52; for Cerebral infarction size (%) / neurological deficit score (points) / Cerebral water content (%): Edaravone 1.0 mg/kg, natural borneol 0.5 mg/kg, mean ± SD; for neurological deficit score (points): Longa 5-point scoring 24 h after reperfusion, control 3.1 ± 1.05; for neurological deficit score (points) / Cerebral water content (%): combination 0.5+0.25 mg/kg i.p. twice; for Cerebral water content (%): dry and wet method after ischemia/reperfusion, sham 78.41, control 82.19; for cerebral edema / cerebral water content compared with control group: single drugs P<0.05, combination P<0.01; for effect on symptoms of neurological deficits: versus control group, doses as Table 1
Experimental: 1.1 Animals: healthy male Wistar rats weighing 280-320 g.
1.2 Drugs and Reagents: Edaravone for injection (2 mg/mL) of Example 1, natural borneol injection (2 mg/mL) of Example 3 and Edaravone+natural borneol injection of Example 5.
Main steps are described as follows. Rats were anesthetized with 10% chloral hydrate (350 mg/kg, i.p.). Right external carotid was separated, ligated and severed. A nylon thread with rounded tip was inserted slowly for about 18 mm in depth into the residual end of right external carotid and through common carotid and internal carotid to induce ischemia by blocking the origin of middle cerebral artery. After ischemia for 2 h, the nylon thread was removed for reperfusion for 24 h. Animals in the sham group were treated identically to those in the model group, except that a nylon thread was just used to separate the artery. Manifestation of Homer's symptom and opposite lateral body dyskinesia after animal revival means a successful modelling.
Experimental animals were randomly divided into five groups, including sham group, control group and drug groups. Animals in drug groups were intraperitoneally injected twice, 30 min before ischemia and 12 h after reperfusion. Animals in sham group and control group were each injected with equal volume of normal saline instead.
Neurological deficit scoring: Behavioral evaluation was performed 24 h after reperfusion according to Longa 5-point scoring system.
Determination of cerebral infarction size: Animals were decapitated to get the brain after the last neurological deficit scoring. Rhinencephalon, lower brain stem and cerebella were removed, and the remaining brains were immediately weighted to obtain wet weights. The brains were sectioned coronally into five slices with substantially identical thickness on ice, then incubated in 2,3,5-triphenyl tetrazolium chloride for 30 min at 37° C. Normal brain tissues appeared rose, while infarction areas appeared white. Next, brain slices were fixed in 10% formaldehyde, and white tissues were carefully removed and weighed. Infarction size was determined by the percentage of infracted tissue weight in the total cerebral weight.
Determination of cerebral water content: Cerebral water contents were determined by dry and wet method. Animals were sacrificed to get the whole brain. Rhinencephalon, lower brain stem and cerebella were removed and the wet weight of the remaining brains was determined immediately. Dry weight was obtained after baking in a oven for about 18 h at 120° C. Cerebral water content was calculated according to the following equation: Cerebral water content (%)=(cerebral wet weight−cerebral dry weight)/cerebral wetweight×100.

New Zealand rabbits = assay: Repeated intravenous toxicity in rabbits: hematuria, gross necropsy, histopathology (Example 19); assay type: in vivo; conditions: for incidence of hematuria: marginal ear vein once daily, 6 rabbits
Experimental: 1.1 Animals: 36 New Zealand rabbits, general grade, with body weight of 2.0-3.0 kg, 18 ♂ and 18 ♀(female and male) respectively.
1.2 Drugs and Reagents: drugs obtained from Examples 12, 13, 14 and 15; 1,2-propylene glycol, 0.9% sodium chloride injection.
Edaravone 80 mg/kg (propylene glycol content: 40%)
Edaravone 20 mg/kg (propylene glycol content: 10%)
Combined Edaravone 120 mg/kg (propylene glycol content: 50%)
Combined Edaravone 30 mg/kg (propylene glycol content: 10%)
Combined Edaravone in this Example refers to Edaravone+natural borneol (weight ratio=2:1).
In the above dosage groups, the dosage per day per rabbit was calculated according to actual weight of each rabbit. The test drugs were administrated in equal volume according to body weight of respective rabbits.
36 rabbits were numbered and randomly divided into six groups according to the body weight, including 4 dosage groups, “Edaravone+natural borneol (weight ratio=2:1)” 120 mg/kg, 30 mg/kg; “Edaravone” 80 mg/kg, 20 mg/kg; as well as vehicle group (40% propylene glycol solution) and solvent group (0.9% sodium chloride injection). There were 6 rabbits in each group, including 3 males and 3 females each. Rabbits were habituated and observed for 3 days before the test. During the test, rabbits were dosed once at the same time in each morning via marginal ear vein injection. Rabbits in high dosage groups were continuously dosed for 13 days, while in low dosage groups, solvent group and vehicle group for 20 days. The dosage were regulated in accordance with body weight variation. Animal responses, stimulations at injection sites and histopathological examination in kidneys and injection site were used to comprehensively evaluate the toxicity of either combined Edaravone or Edaravone on the rabbits.

[3] = test system: MCAO cerebral ischemia/reperfusion model rats; assay: Middle cerebral artery occlusion (MCAO) cerebral ischemia/reperfusion model, internal carotid thread method (Example 17); assay type: in vivo, Wistar rats; conditions: Edaravone+natural borneol total 0.75 mg/kg, Nimodipine 0.4 mg/kg single dosage, mean ± SD, n=8
Experimental: 1.2 Drugs and Reagents: Edaravone+natural borneol for injection of Examples 5, 8 and 9.
Middle cerebral artery occlusion (MCAO), a cerebral ischemia/reperfusion model, was prepared using the internal carotid thread method. Animals were anesthetized with 10% chloral hydrate (3.5 mL/kg), and then fixed on the operation table in prone position. The skin was disinfected and the neck was incised from the midline. Right common carotid, external carotid and internal carotid were separated, and vagus nerve was separated carefully. The external carotid was ligated and severed. Moved forward along the internal carotid, and then pterygopalatine artery was ligated. The proximal part of common carotid was clamped and a cut was made at the distal end of the external carotid ligature. A nylon thread with the outer diameter of 0.285 mm was inserted into the cut, through the branch of common carotid and then into internal carotid slowly until a slight resistance was met (about 20 mm distance from the divergence point). […] Cerebral blood flow was monitored by using laser Doppler cerebral flowmetry. After ischemia in the right brain for 2.0 h, the nylon thread was withdrawn slowly and then blood supply was recovered for reperfusion. The scalp was sutured and disinfected. In the sham group, only the blood vessels were separated without the insertion of a nylon thread. During the operation, rat heating plate and desk lamp with 60 W were used to keep the body temperature of rats at 37.0±0.5° C. […]
Neurological deficit scoring: neurological deficit symptoms were evaluated according to modified Bederson scoring system of 5-point. Neurological deficit symptoms after cerebral trauma in rats were evaluated by using single-blinded method. That is, the experiment designer labeled the animals in groups, while the experiment performer who scored neurological deficit symptoms were blinded for animals grouping. […]

[4] = Edaravone 80 and 20 mg/kg groups, combined Edaravone 120 and 30 mg/kg groups

## CC1=NN(c2ccccc2)C(=O)C1 [Edaravone, 3-methyl-1-phenyl-2-pyrazolin-5-one]
[1]; Edaravone 3 mg/kg, combination dose not given, mean ± SD, n=8, model 2.7 ± 0.5
  neurological deficit symptoms score: 0.94 ± 0.46
[1]; Edaravone 3 mg/kg, combination dose not given, mean ± SD, n=8, model 25.4 ± 14.8
  cerebral infarction area: 9.7 ± 4.6
[1]; Edaravone 3 mg/kg, combination dose not given, mean ± SD, n=8, model 32.2 ± 15.1
  brain lesion: 11.6 ± 9.7
[1]; F4,35=4.62, P=0.03, 4:1 and 9:1 P=0.081
  cerebral infarction area compared with model group: significantly reduced
[1]; F4,35=5.78, P=0.04, 4:1 and 9:1 P=0.159
  severity of brain lesion compared with model group: significantly reduced
[2]
  Cerebral infarction size (%): 18.0 ± 5.29 %
  neurological deficit score (points): 2.5 ± 1.02 points
  Cerebral water content (%): 81.65 ± 1.24 %
  cerebral edema / cerebral water content compared with control group: significant effect
  effect on symptoms of neurological deficits: Neither Edaravone alone nor natural borneol alone had significant effect
New Zealand rabbits; 20 mg/kg i.v. daily, 20 days
  gross necropsy: rabbits with a swollen kidney: 3 of 6
New Zealand rabbits; 20 mg/kg, 20 days, propylene glycol 10%
  incidence of hematuria: 100%
New Zealand rabbits; 80 mg/kg i.v. daily, 13 days
  gross necropsy: liver finding: one of the rabbits suffered hepatonecrosis and had a khaki and hard liver
  gross necropsy: rabbits with khaki and swollen kidney having uneven surface: 3 of 6
New Zealand rabbits; 80 mg/kg, 13 days, propylene glycol 40%
  incidence of hematuria: 100%
New Zealand rabbits; [4]
  histopathological examination: injection sites: stimulatory changes such as vascular occlusion to varied extents
  histopathological examination: kidney: progressive renal lesion such as renal tubular lesion, inflammatory infiltration of mesenchyme, and glomerular lesion

## COCCOC(=O)C1=C(C)NC(C)=C(C(=O)OC(C)C)C1c1cccc([N+](=O)[O-])c1 (stereo not shown) [Nimodipine]
[3]; modified Bederson 5-point score, four administrations (0, 2, 4, 24 h after ischemia), model 2.6 ± 0.52
  neurological deficit symptoms score: 1.1 ± 0.58
[3]; percentage of brain lesion by formazan absorbance at 485 nm, model 33.2 ± 14.8
  brain lesion: 11.6 ± 5.0
[3]; percentage of infarction area by TTC image analysis, model 27.4 ± 13.4
  cerebral infarction area: 8.8 ± 4.0

## CC1(C)C2CCC1(C)C(O)C2 (stereo not shown) [Natural borneol, dextro-camphol]
[2]
  Cerebral infarction size (%): 19.8 ± 6.37 %
  neurological deficit score (points): 2.0 ± 0.98 points
  Cerebral water content (%): 81.25 ± 0.97 %
  cerebral edema / cerebral water content compared with control group: significant effect
  effect on symptoms of neurological deficits: Neither Edaravone alone nor natural borneol alone had significant effect
